Structures can show the parent of a compound that is named as a salt. Where two headings read alike, the source gives them in different places.

Here are results for 23 compounds from US6472408B1, “Dimeric compounds” (priority 2000, dated 2002).

In assay [1] the target is T1, AChE (Rattus norvegicus, UniProt P37136).
T1 construct: Frontal cortex (brain dissected on ice) was homogenized in sodium phosphate buffer; from tissue; host or cells: rat frontal cortex homogenate
T1 sequence (P37136 32-614): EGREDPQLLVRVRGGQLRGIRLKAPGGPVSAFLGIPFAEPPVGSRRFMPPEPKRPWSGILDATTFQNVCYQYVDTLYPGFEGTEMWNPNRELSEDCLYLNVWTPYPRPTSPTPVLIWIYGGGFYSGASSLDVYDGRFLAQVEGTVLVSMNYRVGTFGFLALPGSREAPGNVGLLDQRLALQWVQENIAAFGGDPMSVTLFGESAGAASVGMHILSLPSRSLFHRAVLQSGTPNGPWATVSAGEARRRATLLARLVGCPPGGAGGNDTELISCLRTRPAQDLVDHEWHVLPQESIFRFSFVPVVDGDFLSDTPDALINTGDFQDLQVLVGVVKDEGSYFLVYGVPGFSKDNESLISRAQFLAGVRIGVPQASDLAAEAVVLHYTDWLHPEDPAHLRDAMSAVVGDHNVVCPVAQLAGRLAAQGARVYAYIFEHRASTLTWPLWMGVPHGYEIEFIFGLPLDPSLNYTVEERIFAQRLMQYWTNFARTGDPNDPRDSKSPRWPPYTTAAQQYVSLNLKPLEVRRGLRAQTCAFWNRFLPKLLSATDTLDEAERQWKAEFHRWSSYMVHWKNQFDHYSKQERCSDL
The assay can be described thus: biochemical. Conditions: for Selectivity for AChE: IC50(BChE)/IC50(AChE). As for the experimental part: (§1) Rat serum was obtained by centrifugation of blood (3500×g, 10 min.). The cholinesterase assays were performed using the cloroimetric method of Ellman, with minor modification. […] A mixture of 4 mL containing acetylthiocholine iodide (0.3 mM) or butrylthiocholine iodide (0.4 mM), I mL sodium phosphate buffer ([…], pH 7.4), a solution of the compound being tested (0.1 mL), and homogenate or serum (0.1 mL) was incubated at 37° C. for 8 minutes. The reaction was terminated by the addition of sodium dodecyl sulfate (3% w/v, 1 mL), after which the 5,5′-dithiobis-(2-nitrobenzoic acid) indicator (0.2% w/v, 1 mL) was added. Enzyme activity was determined by measuring the absorbance at 420 nm after 10 minutes, relative to the drug-free control.

Assay [2] addresses T2, BChE (Rattus norvegicus, UniProt Q9JKC1).
T2 construct: Rat serum was obtained by centrifugation of blood; from tissue; host or cells: rat serum
Put plainly: biochemical. The following applies: for IC50: rat serum. The protocol:
as §1, with “AChE and BChE enzyme preparations were prepared from cortex and serum respectively of decapitated rats. Frontal cortex (brain dissected on ice) was homogenized in sodium phosphate buffer (39 vol. 75 mM, pH 7.4). Rat” for “Rat”

Where [3] appears, read: at 0.5 mM, the highest drug concentration tested.
Where [4] appears, read: Table II, in the presence of BW284c51 as a specific AChE inhibitor, drugs assayed as salts.
Setting [5] is: Table II, rat cortex homogenate, in the presence of ethopropazine as a specific BChE inhibitor, drugs assayed as hydrochloride or fumaric acid salts, read-out: AchE IC50.
Setting [6] is: Table III, in the presence of BW284c51, drugs 13 assayed as hydrochloride salts.
[7] abbreviates: Table III, rat cornea homogenate, in the presence of ethopropazine, drugs 13 assayed as hydrochloride salts, read-out: AChE IC50.

T2 sequence (Q9JKC1 24-597): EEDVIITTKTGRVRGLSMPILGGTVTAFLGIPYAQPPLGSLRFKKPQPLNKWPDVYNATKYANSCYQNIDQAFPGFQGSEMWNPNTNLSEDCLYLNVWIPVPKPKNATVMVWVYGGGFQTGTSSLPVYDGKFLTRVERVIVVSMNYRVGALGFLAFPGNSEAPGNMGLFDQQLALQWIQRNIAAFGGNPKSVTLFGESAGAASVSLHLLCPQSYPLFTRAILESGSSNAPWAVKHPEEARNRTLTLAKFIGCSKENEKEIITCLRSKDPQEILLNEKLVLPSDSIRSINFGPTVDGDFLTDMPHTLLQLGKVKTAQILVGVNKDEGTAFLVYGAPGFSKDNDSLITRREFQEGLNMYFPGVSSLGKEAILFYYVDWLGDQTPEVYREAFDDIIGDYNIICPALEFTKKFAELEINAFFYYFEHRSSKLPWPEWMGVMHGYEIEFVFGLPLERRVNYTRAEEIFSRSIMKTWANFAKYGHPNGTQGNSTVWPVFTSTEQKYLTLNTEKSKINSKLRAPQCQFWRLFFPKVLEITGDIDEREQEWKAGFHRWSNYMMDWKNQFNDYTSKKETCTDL

A word on the IC50: it is the concentration that gives 50% inhibition. As a reminder, the inhibition is the share of the control response that was lost under treatment. Low readings indicate little suppression, high ones strong suppression. For the compound `CCCCNC1CCCc2[nH]c(=O)ccc21` (racemic) [(±)-16, 5-n-Butylamino-5,6,7,8-tetrahydroquinolinone, bis-Hydrochloride, reference compound], the IC50 in assay [1] and in assay [2] (setting [4]) was approximately 500 µM each time. Besides, the “Selectivity for AChE” value in assay [1] (Table II) is on record as “·1”. The inhibition at 500 µM in assay [1] (setting [3]) and in assay [2] (setting [3]) was approximately 50% in each case.

As for `O=c1ccc2c([nH]1)CCCC2NCCCCNC1CCCc2[nH]c(=O)ccc21` (racemic) [rac-lmeso-13a], the “Selectivity for AChE” value in assay [1] (Table II) stood at 2.7. The IC50 in assay [1] (setting [5]) was determined as 42.3 µM; in assay [2] (setting [4]) it was 115 µM.

For `O=c1ccc2c([nH]1)CCCC2NCCCCCNC1CCCc2[nH]c(=O)ccc21` (racemic) [rac-lmeso-13b], in assay [1] (Table II), the “Selectivity for AChE” value was determined as 9.1. In addition, the IC50 in assay [1] (setting [5]) worked out at 10.5 µM.

For the compound `O=c1ccc2c([nH]1)CCCC2NCCCCCCNC1CCCc2[nH]c(=O)ccc21` (racemic) [rac-lmeso-13c], the “Selectivity for AChE” value in assay [1] (Table II) worked out at 26.3. In addition, the IC50 in assay [1] (setting [5]) is 3.76 µM; in assay [2] (setting [4]), 98.8 µM.

For the compound `O=c1ccc2c([nH]1)CCCC2NCCCCCCCNC1CCCc2[nH]c(=O)ccc21` (racemic) [rac-lmeso-13d, rac-/meso-N′,N′-Di-5′-(5′,6′,7′,8′-Tetrahydroquinolin-2-onyl)-1,7-diaminoheptane, bis-Hydrochloride Salt], in assay [1] (Table II), the “Selectivity for AChE” value stood at 28.0. In addition, the IC50 in assay [1] (setting [5]) amounted to 1.24 µM; in assay [2] (setting [4]) it was 34.6 µM.

With `O=c1ccc2c([nH]1)CCCC2NCCCCCCCCNC1CCCc2[nH]c(=O)ccc21` (racemic) [rac-lmeso-13e], the “Selectivity for AChE” value in assay [1] (Table II) is given as 8.7. In addition, the figures for the IC50 in assay [1] (setting [5]) and in assay [2] (setting [4]) were 1.17 µM and 10.2 µM, respectively.

As to `O=c1ccc2c([nH]1)CCCC2NCCCCCCCCCNC1CCCc2[nH]c(=O)ccc21` (racemic) [rac-lmeso-13f], in assay [1] (Table II), the “Selectivity for AChE” value is listed as 30.3. Moreover, the IC50 in assay [1] (setting [5]) was 0.356 ± 0.007 µM.

As to `O=c1ccc2c([nH]1)CCCC2NCCCCCCCCCCNC1CCCc2[nH]c(=O)ccc21` (racemic) [rac-lmeso-13g], the IC50 in assay [2] (setting [4]) was determined as 5.45 µM.

For the compound `O=c1ccc2c([nH]1)CCCC2NCCCCCCCCCCCCNC1CCCc2[nH]c(=O)ccc21` (racemic) [rac-lmeso-13i], the IC50 in assay [2] (setting [4]) was 24.4 µM.

In the case of `CC1(C)Cc2[nH]c(=O)ccc2C(NCCCCCCCNC2CC(C)(C)Cc3[nH]c(=O)ccc32)C1` (racemic) [rac-lmeso-14d, rac-/meso-N,N′-Di-5′-(7′,7′-Dimethyl-5′,6′,7′,8′-tetrahydroquinolin-2-onyl)-1,7-diaminoheptane, bis-Fumaric Acid Salt], the “Selectivity for AChE” value in assay [1] (Table II) was 10. Also, the IC50 in assay [1] (setting [5]) came out at 18.3 µM; in assay [2] (setting [4]) it was 190 µM.

Turning to `CC1(C)Cc2[nH]c(=O)ccc2C(NCCCCCCCCCNC2CC(C)(C)Cc3[nH]c(=O)ccc32)C1` (racemic) [rac-lmeso-14f], in assay [1] (Table II), the “Selectivity for AChE” value is 8.8. The concentration for half-maximal inhibition (IC50) in assay [1] (setting [5]) came to 11.8 µM; in assay [2] (setting [4]), 104 µM.

In the case of `CC1(C)Cc2[nH]c(=O)ccc2C(NCCCCCCCCCCNC2CC(C)(C)Cc3[nH]c(=O)ccc32)C1` (racemic) [rac-lmeso-14g], in assay [1] (Table II), the “Selectivity for AChE” value was 17. Further, the IC50 in assay [1] (setting [5]) turned out to be 6.11 µM.

With `CC1(C)Cc2[nH]c(=O)ccc2C(NCCCCCCCCCCCCNC2CC(C)(C)Cc3[nH]c(=O)ccc32)C1` (racemic) [rac-lmeso-14i], the “Selectivity for AChE” value in assay [1] (Table II) was determined as 17. In assay [1] (setting [5]), the IC50 was found to be 3.62 µM.

Turning to `Cn1c2c(ccc1=O)C(NCCCCCCCCCCNC1CCCc3c1ccc(=O)n3C)CCC2` (racemic) [rac-lmeso-15g, rac/meso-N,N′-di-5′-(5′,6′,7′,8′-Tetrahydro-1′-methyl-quinolinolyl)-1,10-diaminodecane, bis-Fumaric Acid], the “Selectivity for AChE” value in assay [1] (Table II) came out at 180. The IC50 in assay [1] (setting [5]) was 0.438 ± 0.029 µM.

With `COc1ccc2c(n1)CCCC2NCCCCCCCCCCNC1CCCc2nc(OC)ccc21` (racemic) [rac-lmeso-17g, rac-/meso-N,N′-di-5′-(5′,6′,7′,8′-Tetrahydro-2′-methoxy-quinolinyl)-1,10-diaminodecane, bis-Fumaric Acid], the “Selectivity for AChE” value in assay [1] (Table II) was 7.6. The IC50 in assay [1] (setting [5]) came out at 4.53 µM; in assay [2] (setting [4]), 34.6 µM.

On to `COc1ccc2c(n1)CCCC2NCCCCCCCCCCCCNC1CCCc2nc(OC)ccc21` (racemic) [rac-lmeso-17i], for which the “fold increase in AChE IC50 relative to rac-/meso-13i” value in assay [1] was 31 fold. In addition, the “Selectivity for AChE” value in assay [1] (Table II) amounted to 15.8. In addition, the IC50 turned out to be 5 µM in assay [1] (setting [5]) and 78.9 µM in assay [2] (setting [4]).

On to `CC1(NCCCCCCCCCCNC2(C)CCCc3[nH]c(=O)ccc32)CCCc2[nH]c(=O)ccc21` (racemic) [rac-lmeso-19g, rac-/meso-N,N′-di-5′-(5′,6′,7′,8′-Tetrahydro-5′-methylquinolinonyl)-1,10-diaminodecane, Fumaric Acid Salt], for which, in assay [1] (AChE potency), the “fold less potent than 13 g” value is recorded as 8 fold. Also, the “Selectivity for AChE” value in assay [1] (Table II) is on record as 6.6. Further, the IC50 in assay [1] (setting [5]) was found to be 1.86 µM.

With `O=c1ccc2c([nH]1)CCC[C@H]2NCCCCCCCCCCCCN[C@@H]1CCCc2[nH]c(=O)ccc21` [(R,R)-(+)-13i], the IC50 in assay [2] (setting [6]) was 297 µM.

In the case of `O=c1ccc2c([nH]1)CCC[C@@H]2NCCCCCCCCCCN[C@H]1CCCc2[nH]c(=O)ccc21` [(S,S)-(−)-13g], the IC50 in assay [2] (setting [6]) worked out at 1.82 µM.

As for `O=c1ccc2c([nH]1)CCC[C@@H]2NCCCCCCCCCCCN[C@H]1CCCc2[nH]c(=O)ccc21` [(S,S)-(−)-13h], the “Selectivity for AChE” value in assay [1] (Table III) amounted to 13.8. The IC50 in assay [1] (setting [7]) amounted to 0.084 ± 0.005 µM; in assay [2] (setting [6]), 1.16 µM.

With `O=c1ccc2c([nH]1)CCC[C@@H]2NCCCCCCCCCCCCN[C@H]1CCCc2[nH]c(=O)ccc21` [(S,S)-(−)-13i, (S,S)-(−)-N,N′-di-5′-(5′,6′,7′,8′-Tetrahydroquinolin-2-onyl)-1,12-diaminododecane, bis-Hydrochloride Salt], the IC50 in assay [2] (setting [6]) stood at 9.6 µM.

For the compound `O=c1ccc2c([nH]1)CCC[C@@H]2NCCCCCCCCCCCCCN[C@H]1CCCc2[nH]c(=O)ccc21` [(S,S)-(−)-13j], in assay [1] (Table III), the “Selectivity for AChE” value stood at 321. For the same compound, the IC50 in assay [1] (setting [7]) was 0.052 ± 0.009 µM; in assay [2] (setting [6]) it was 16.7 µM.

For `O=c1ccc2c([nH]1)CCC[C@@H]2NCCCCCCCCCCCCCCN[C@H]1CCCc2[nH]c(=O)ccc21` [(S,S)-(−)-13k], the “Selectivity for AChE” value in assay [1] (Table III) was 248. Further, the IC50 in assay [1] (setting [7]) is 0.24 ± 0.05 µM; in assay [2] (setting [6]) it was 59.5 µM.
